Values of other authors in patent US7935665B2, “Non-corrosive cleaning compositions for removing etch residues” (Fujifilm Electronic Materials U.S.A., Inc., priority 2002, dated 2011).

Settings: of the acid in the formulation

pKa1 | PKa2 | SMILES
3.86 | – | O=C(O)[C@H](O)[C@@H](O)[C@H](O)[C@H](O)CO [D-gluconic acid]
3.48 | 5.1 | O=C(O)CC(O)C(=O)O (racemic) [DL-malic acid]
